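Protocol summary: plate cells (96-well), add compound at 5 concentrations, incubate 48 h, interpolate endpoints linearly. GI50 is the concentration that inhibits growth by half. Definition used: TGI = concentration required for complete inhibition of growth.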
Legend:
Assay in all cases: inhibition of tumour cell growth, NCI panel, 48 h
[1] = test system: ACHN renal
[2] = test system: HCT-15 colon
[3] = test system: HOP-62 NSCLC
[4] = test system: LOX IMVI melanoma
[5] = test system: NCI-H226 lung
[6] = test system: NCI-H522 lung
[7] = test system: OVCAR-5 ovarian
[8] = test system: PC-3 prostate
[9] = test system: SF-295 CNS
[10] = test system: MDA-N

| SMILES | TGI [1] | TGI [2] | TGI [3] | TGI [4] | TGI [5] | TGI [6] | TGI [7] | TGI [8] | TGI [9] | TGI [10] | GI50 [1] | GI50 [3] | GI50 [4] | GI50 [5] | GI50 [6] | GI50 [7] | GI50 [8] | GI50 [9] |
| --- | --- | --- | --- | --- | --- | --- | --- | --- | --- | --- | --- | --- | --- | --- | --- | --- | --- | --- |
| CC(C)CC1[C@@H](OCc2ccccc2)COS(=O)(=O)N1Cc1ccccc1 (stereo not given in full) | > 100 µM | > 100 µM | > 100 µM | > 100 µM | > 100 µM | > 100 µM | > 100 µM | > 100 µM | > 100 µM | – | – | – | – | – | – | – | – | – |
| Cc1ccc(Nc2nc(=O)[nH]c(=O)[nH]2)cc1N=[N+]=[N-] | > 100 µM | > 100 µM | > 100 µM | > 100 µM | > 100 µM | > 100 µM | > 100 µM | – | > 100 µM | > 100 µM | – | – | – | – | – | – | – | – |
| O=c1[nH]c(Nc2cccc(Br)c2)nc2nc[nH]c12 | > 100 µM | > 100 µM | – | > 100 µM | > 100 µM | > 100 µM | > 100 µM | > 100 µM | > 100 µM | > 100 µM | – | – | – | – | – | – | – | – |
| CC1(C)C[C@H](O)[C@H](O)[C@]23C(=O)O[C@H](O)[C@H]2C(C=O)=CC[C@@H]13 | > 100 µM | > 100 µM | > 100 µM | > 100 µM | > 100 µM | > 100 µM | – | > 100 µM | > 100 µM | > 100 µM | – | – | – | – | – | – | – | – |
| Nn1c(SCC(=O)NCc2ccccc2)nc2ccccc2c1=O | > 100 µM | > 100 µM | – | > 100 µM | > 100 µM | > 100 µM | > 100 µM | > 100 µM | > 100 µM | > 100 µM | – | – | – | – | – | – | – | – |
| CCCC#CC(O)(C(=O)OC1CCN(C)CC1)C1CCCCC1 (stereo not given) | > 100 µM | > 100 µM | > 100 µM | > 100 µM | > 100 µM | – | > 100 µM | > 100 µM | > 100 µM | > 100 µM | – | – | – | – | – | – | – | – |
| COc1ccc(Nc2nc(N)c(C(=O)c3ccccc3)s2)cc1 | > 100 µM | 26.2 µM | > 100 µM | > 100 µM | 29.5 µM | > 100 µM | > 78.4 µM | > 62.4 µM | > 100 µM | – | – | – | – | – | – | – | – | – |
| O[C@H]1[C@H](O)[C@H](O)CN2CCC[C@@H](O)[C@H]12 | > 100 µM | > 100 µM | > 100 µM | > 100 µM | > 100 µM | > 100 µM | > 100 µM | > 100 µM | > 100 µM | – | – | – | – | – | – | – | – | – |
| COc1ccc(Cl)cc1NC(=O)c1c(NC(=O)C(F)(F)C(F)(F)F)sc2c1CCCCC2 | 7.11 µM | – | 7 µM | > 100 µM | 6.05 µM | 7.68 µM | > 100 µM | 11.3 µM | 3.73 µM | – | 1760 nM | 2490 nM | 2620 nM | 1910 nM | 588 nM | 2610 nM | 1470 nM | 1030 nM |
| Cn1c2ccccc2n2c(=O)c3cccnc3c(C#N)c12 | > 100 µM | > 100 µM | > 100 µM | > 100 µM | 30.1 µM | > 100 µM | > 100 µM | – | > 100 µM | > 100 µM | – | – | – | – | – | – | – | – |
| S=C(c1c[nH]c2ccccc12)N1CCN(c2ccccc2)CC1 | > 100 µM | > 100 µM | > 100 µM | > 100 µM | > 100 µM | – | > 100 µM | > 100 µM | > 100 µM | > 100 µM | – | – | – | – | – | – | – | – |
| CC1(C)C(=O)C2(OS(=O)(=O)C(F)(F)F)CCC1C2 (stereo not given) | > 100 µM | > 100 µM | > 100 µM | > 100 µM | > 100 µM | – | > 100 µM | > 100 µM | > 100 µM | > 100 µM | – | – | – | – | – | – | – | – |
| O=C1/C(=C/c2cccs2)NC(=S)N1CN1CCOCC1 | > 100 µM | > 100 µM | > 100 µM | > 100 µM | > 100 µM | – | > 100 µM | > 100 µM | > 100 µM | > 100 µM | – | – | – | – | – | – | – | – |
| CCOC(=O)/C=C(\N=P(c1ccccc1)(c1ccccc1)c1ccccc1)C(F)(F)C(F)(F)C(F)(F)C(F)(F)C(F)(F)F | > 100 µM | > 100 µM | > 100 µM | > 100 µM | – | – | > 100 µM | > 100 µM | > 100 µM | > 100 µM | – | – | – | – | – | – | – | – |
| CCOC(=O)C1(C(=O)OCC)CC(=O)[C@@]2(C1)OCC[C@H]1OC(=O)C[C@H]12 | > 100 µM | > 100 µM | > 100 µM | > 100 µM | – | > 100 µM | > 100 µM | > 100 µM | > 100 µM | > 100 µM | – | – | – | – | – | – | – | – |
| COc1ccc(C2SCC(=O)N2NC(=O)C(C)Oc2ccccc2Cl)cc1 (stereo not given) | > 100 µM | > 100 µM | – | 62 µM | > 100 µM | > 100 µM | > 100 µM | > 100 µM | > 100 µM | – | – | – | – | – | – | – | – | – |
| CC1C(c2ccc3c(c2)OCO3)c2cc3c(cc2OC1N1CCCCC1)OCO3 (stereo not given) | > 100 µM | > 100 µM | > 100 µM | > 100 µM | – | > 100 µM | > 100 µM | > 100 µM | > 100 µM | 48.6 µM | – | – | – | – | – | – | – | – |
| COc1cc2cc(C(=O)N3CC(CCl)c4c3cc(N(C)C)c3ccccc43)[nH]c2c(OC)c1OC (stereo not given) | > 100 µM | > 41.4 µM | 0.0529 µM | 1.86 µM | – | 0.0261 µM | 0.039 µM | 0.18 µM | 0.0381 µM | – | – | – | – | – | – | – | – | – |
| CN(C)CCNC(=O)c1ccc(NCCCN(C)CCCNc2ccc(C(=O)NCCN(C)C)c3[nH]c4ccc([N+](=O)[O-])cc4c(=O)c23)c2c(=O)c3cc([N+](=O)[O-])ccc3[nH]c12 | 1.5 µM | 1.8 µM | 1.92 µM | 0.206 µM | – | – | 1.71 µM | 0.535 µM | – | 0.997 µM | – | – | – | – | – | – | – | – |
| Cc1ccc(Nc2sc(C)cc2C#N)c([N+](=O)[O-])c1 | > 100 µM | > 100 µM | > 100 µM | – | > 100 µM | > 100 µM | > 100 µM | > 100 µM | > 100 µM | > 100 µM | – | – | – | – | – | – | – | – |
| CCOC(=O)COc1c(OC)cc(C2C3=C(COC3=O)Oc3cc4c(cc32)OCO4)cc1OC (stereo not given) | > 45.8 µM | > 100 µM | > 100 µM | > 100 µM | > 100 µM | 3.14 µM | > 100 µM | > 100 µM | > 26.3 µM | – | – | – | – | – | – | – | – | – |
| N#CC(N=Nc1ccccc1)c1nc2ccccc2o1 (stereo not given) | 56.4 µM | > 100 µM | 39 µM | – | > 100 µM | > 100 µM | > 100 µM | > 100 µM | 35.5 µM | > 100 µM | – | – | – | – | – | – | – | – |
